{"source": "patent US12161688B2", "about": "“Treatment of inflammatory bowel disease with long acting glatiramer and adipose-derived stem cells” (STEM CELL MEDICINE LTD., priority 2016, dated 2024)", "test_system": "DSS-induced IBD", "experiment": "DSS-induced inflammatory bowel disease (acute colitis) in mice", "assay_type": "in vivo, C57BL/6 female mice", "experimental": "Glatiramer acetate (GA) and GA Depot administration: […] GA Depot was suspended in sterile water for injection (WFI) (B Braun, Melsumgen, Germany) and injected intramuscularly (IM) at 10 mg dose (doses of GA Depot are given according to amount of active ingredient, i.e. GA Depot 10 mg contains 10 mg GA) divided to two 5 mg doses on days 0 and 1 due to technical reasons (volume limitation). Animals: All animal studies were approved by local ethics committees. C57BL/6 female mice, 7-9 weeks old were randomized into control or treatment groups with similar mean weight Animals were given food and water ad libitum throughout the experiment. Cell culture: SVF was plated at a density of 2×10^6 cells per 75 cm^2. Cells were grown to 80% confluency, trypsinized and sub-cultured up to passage 3-4. Cells were then collected and analyzed by FACS for the markers: […] The cells were stored frozen in liquid nitrogen until use. For use, the cells were thawed and plated at a concentration of 50,000 cells/cm^2 and incubated overnight. Prior to cells intraperitoneal (IP) injection the cells were trypsinized, counted and prepared for injection at a concentration of 1×10^6 cell/100 ul PBS and kept in ice until use for a period no longer than 30 min. Inflammatory bowel disease (IBD) induction: A widely used IBD model in mice is the dextran sulfate sodium (DSS)-induced colitis. DSS administration in the mice drinking water leads to many of the events presumed to initiate and sustain human IBD (Boismenu and Chen (2000) J Leukoc Biol, 67:267-278). […] In brief, body weight, rectal bleeding (observation of bleeding signs on the anus or gross bleeding), stool consistency and survival were monitored daily. […] Fourteen (14) days following disease induction, mice were sacrificed and the large intestine was collected and evaluated for colon length and microscopic colonic damage. […] Statistical analysis: Each data set was analyzed using single-factor analysis of variance (ANOVA) followed by two-tailed, two-sample students' T test assuming unequal variances, n=10/group, +/-standard error.", "data": [{"substance": "L-glutamic acid polymer with L-alanine, L-lysine and L-tyrosine, acetate (salt) [Copaxone®]", "values": [{"measurement": "animals showing bleeding (Hemoccult test)", "setting": "day 5", "result": 50, "unit": "%"}, {"measurement": "animals showing bleeding (Hemoccult test)", "setting": "day 10", "result": 20, "unit": "%"}, {"measurement": "effect on IBD manifestations (overall conclusion)", "setting": "mouse, in vivo", "result": "almost no effect"}]}]}
